Like-named read-outs stand apart in the source and are kept apart here. Where a SMILES comes first, the peptide text is derived from it. [ ]: non-standard residue; d: D form. The star is where a group is joined. hLys(Nζ-OH,Nζ-For) = N[C@@H](CCCCCN(O)C=O)C(=O)O; Asu = N[C@@H](CCCCCC(=O)O)C(=O)O; NH(2-NH2-phenyl) = Nc1ccccc1N*; dPip = O=C(O)[C@H]1CCCCN1; X2 = Nc1ccccc1O*
Columns and labels:
human HDAC1 = biological target: T1, human HDAC1 (Homo sapiens, UniProt Q13547); assay: HDAC inhibitory activity in vitro (coumarin-labeled acetylated histone peptide), HDAC1; type: biochemical
T1 construct: FLAG; made in house; host or cells: 293T cells, transient transfection; anti-FLAG immunoprecipitation and FLAG peptide elution
T1 sequence (Q13547 whole entry): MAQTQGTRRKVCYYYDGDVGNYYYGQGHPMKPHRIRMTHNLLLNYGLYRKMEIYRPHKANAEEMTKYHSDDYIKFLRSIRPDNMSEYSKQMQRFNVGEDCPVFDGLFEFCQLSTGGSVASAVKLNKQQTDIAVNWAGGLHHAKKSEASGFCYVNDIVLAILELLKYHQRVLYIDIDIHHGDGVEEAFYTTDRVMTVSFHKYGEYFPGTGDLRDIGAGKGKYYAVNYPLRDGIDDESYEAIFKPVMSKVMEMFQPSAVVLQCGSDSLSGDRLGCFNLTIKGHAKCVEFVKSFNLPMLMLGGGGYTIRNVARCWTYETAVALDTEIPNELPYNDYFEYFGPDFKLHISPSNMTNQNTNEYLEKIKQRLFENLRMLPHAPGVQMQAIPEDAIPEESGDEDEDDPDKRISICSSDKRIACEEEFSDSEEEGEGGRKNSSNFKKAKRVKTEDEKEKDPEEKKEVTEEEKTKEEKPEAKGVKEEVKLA

human HDAC4 = biological target: T2, human HDAC4 (Homo sapiens, UniProt P56524); assay: HDAC inhibitory activity in vitro (coumarin-labeled acetylated histone peptide), HDAC4; type: biochemical
T2 construct: FLAG; made in house; host or cells: 293T cells, transient transfection; anti-FLAG immunoprecipitation and FLAG peptide elution
T2 sequence (P56524 whole entry): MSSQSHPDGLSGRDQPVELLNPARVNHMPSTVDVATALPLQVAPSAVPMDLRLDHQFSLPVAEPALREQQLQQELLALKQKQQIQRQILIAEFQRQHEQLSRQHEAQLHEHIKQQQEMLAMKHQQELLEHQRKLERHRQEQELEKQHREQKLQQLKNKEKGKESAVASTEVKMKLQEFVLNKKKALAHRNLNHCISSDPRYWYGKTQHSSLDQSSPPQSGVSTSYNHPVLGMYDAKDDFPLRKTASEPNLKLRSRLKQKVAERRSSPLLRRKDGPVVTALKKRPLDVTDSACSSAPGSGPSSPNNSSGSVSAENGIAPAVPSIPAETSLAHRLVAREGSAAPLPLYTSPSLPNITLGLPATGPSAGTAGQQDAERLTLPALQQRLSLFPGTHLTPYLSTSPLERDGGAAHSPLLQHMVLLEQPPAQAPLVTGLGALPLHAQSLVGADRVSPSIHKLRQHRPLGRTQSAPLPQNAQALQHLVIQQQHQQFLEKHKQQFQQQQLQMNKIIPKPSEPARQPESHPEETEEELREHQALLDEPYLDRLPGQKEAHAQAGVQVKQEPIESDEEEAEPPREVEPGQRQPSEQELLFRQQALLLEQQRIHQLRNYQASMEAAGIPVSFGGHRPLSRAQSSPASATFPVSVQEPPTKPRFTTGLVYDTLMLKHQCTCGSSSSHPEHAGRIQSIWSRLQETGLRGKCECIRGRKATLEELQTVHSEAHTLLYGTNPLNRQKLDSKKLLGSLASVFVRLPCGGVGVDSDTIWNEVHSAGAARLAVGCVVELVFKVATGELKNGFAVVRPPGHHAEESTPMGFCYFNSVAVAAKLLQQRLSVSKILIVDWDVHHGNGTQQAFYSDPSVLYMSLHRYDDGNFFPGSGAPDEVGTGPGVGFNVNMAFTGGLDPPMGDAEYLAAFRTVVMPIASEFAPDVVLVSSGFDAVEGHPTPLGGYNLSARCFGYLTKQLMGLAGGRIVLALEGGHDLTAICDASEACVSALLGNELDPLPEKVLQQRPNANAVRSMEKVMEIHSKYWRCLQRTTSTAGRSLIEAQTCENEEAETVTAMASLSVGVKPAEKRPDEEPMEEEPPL

mouse HDAC6 = biological target: T3, mouse HDAC6 (Mus musculus, UniProt Q9Z2V5); assay: HDAC inhibitory activity in vitro (coumarin-labeled acetylated histone peptide), HDAC6; type: biochemical
T3 construct: HA; made in house; host or cells: 293T cells, transient transfection; anti-HA immunoprecipitation and HA peptide elution
T3 sequence (Q9Z2V5 1-1149): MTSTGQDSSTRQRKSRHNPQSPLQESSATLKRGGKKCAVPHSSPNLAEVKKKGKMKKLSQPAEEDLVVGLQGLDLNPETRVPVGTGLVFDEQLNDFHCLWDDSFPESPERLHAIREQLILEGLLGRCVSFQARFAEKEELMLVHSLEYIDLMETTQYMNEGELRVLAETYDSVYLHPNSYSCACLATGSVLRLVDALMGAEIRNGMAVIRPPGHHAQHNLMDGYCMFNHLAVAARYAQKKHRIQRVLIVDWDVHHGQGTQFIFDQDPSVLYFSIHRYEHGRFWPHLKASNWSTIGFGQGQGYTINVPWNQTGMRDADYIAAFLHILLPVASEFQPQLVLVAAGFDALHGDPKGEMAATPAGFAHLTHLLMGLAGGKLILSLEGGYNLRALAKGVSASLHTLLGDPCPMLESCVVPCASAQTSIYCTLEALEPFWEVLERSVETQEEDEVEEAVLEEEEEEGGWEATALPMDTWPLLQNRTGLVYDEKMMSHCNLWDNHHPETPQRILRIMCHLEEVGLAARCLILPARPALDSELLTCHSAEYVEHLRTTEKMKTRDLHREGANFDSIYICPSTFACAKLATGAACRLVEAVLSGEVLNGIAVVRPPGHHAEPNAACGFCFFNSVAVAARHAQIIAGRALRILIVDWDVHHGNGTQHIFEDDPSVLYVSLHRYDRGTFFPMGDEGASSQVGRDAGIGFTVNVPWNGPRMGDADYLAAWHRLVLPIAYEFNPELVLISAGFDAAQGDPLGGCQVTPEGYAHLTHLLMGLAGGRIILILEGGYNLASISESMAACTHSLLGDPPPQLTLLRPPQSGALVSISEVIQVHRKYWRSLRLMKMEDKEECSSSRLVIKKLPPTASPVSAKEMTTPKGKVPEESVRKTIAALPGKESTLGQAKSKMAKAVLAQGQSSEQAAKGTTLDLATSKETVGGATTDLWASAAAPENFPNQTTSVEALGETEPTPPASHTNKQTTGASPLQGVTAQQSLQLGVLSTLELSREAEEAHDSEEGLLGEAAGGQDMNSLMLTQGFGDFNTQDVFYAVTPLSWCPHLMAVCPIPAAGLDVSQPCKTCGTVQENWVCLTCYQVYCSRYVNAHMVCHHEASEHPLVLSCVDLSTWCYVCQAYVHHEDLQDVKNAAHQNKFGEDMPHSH

[1] = tested on: human wild-type p21 promoter; assay: p21 promoter-inducing activity (luciferase) in MFLL-9 cells; type: cell-based
Description: The HDAC inhibitory activity in vivo was measured using p21 promoter-inducing activity as an index, as shown below. The MFLL-9 cells employed for the experiments stably maintained fusion genes of human wild-type p21 promoter and luciferase (Dr. B. Vogelstaein). Using phenol red-free DMEM medium comprising 10% FBS, cultivation was carried out in a steam-saturated incubator at 37° C. with 5% carbon dioxide. The MFLL-9 cells were plated at a density of 85,000 cells/well on a 96-well microtiter plate, each in 99 μl of the above-mentioned medium. These were then cultivated for six hours. One μl of test compound solution was added to each well, which was then cultured for another 18 hours.
The intensity of luminescence caused by the product of the enzyme reaction for intracellular luciferase expression was measured using Luc Lite (Packard BioScience Company).
HDAC inhibitory activity in an in vivo system was measured using p21 promoter induction as index. The experimental method followed that of Example 11.

[2] = from H-dTyr(Me)-Ile-dPip-Hly(For,OBzl)-OH?; amide bond; 12-membered ring; HATU/DIEA; DMF; 0.39 mM; 25.0 °C
[3] = Table 3, method of Example 11, read-out: IC50(μM) HDAC1
[4] = Table 3, method of Example 11, read-out: IC50(μM) HDAC4
[5] = Table 3, method of Example 11, read-out: IC50(μM) HDAC6
[6] = Table 3, method of Example 11, 50% of the maximum activity observed in TSA
[7] = Table 1, 37° C., 30 minutes, read-out: IC50 (μM) HDAC1
[8] = Table 1, 37° C., 30 minutes, read-out: IC50 (μM) HDAC4
[9] = Table 1, 37° C., 30 minutes, read-out: IC50 (μM) HDAC6
[10] = Table 1, MFLL-9 cells, 18 hours, concentration corresponding to 50% of the maximum active value for TSA

| Molecule | IC50 (human HDAC1; [7]) [µM] | IC50 (human HDAC4; [8]) [µM] | IC50 (mouse HDAC6; [9]) [µM] | EC50 [1, 10] [µM] | further results |
| --- | --- | --- | --- | --- | --- |
| CC[C@H](C)[C@@H]1NC(=O)[C@@H](Cc2ccc(OC)cc2)NC(=O)[C@H](CCCCCC(=O)Nc2ccccc2N)NC(=O)[C@H]2CCCN2C1=O [OPD, cyclo(L-Asu(OPD)-D-Tyr(Me)-L-Ile-D-Pro)] (cyclo([Asu](NH(2-NH2-phenyl))[dY](Me)I[dP])) |  |  |  |  | IC50 (human HDAC1; [3]): 4.04 µM; IC50 (human HDAC4; [4]): 15.7 µM; IC50 (mouse HDAC6; [5]): 321 µM; EC50 [1, 6]: 30.9 µM |
| CC[C@H](C)[C@@H]1NC(=O)[C@@H](Cc2ccc(OC)cc2)NC(=O)[C@H](CCCCCC(=O)OC)NC(=O)[C@H]2CCCN2C1=O [COOMe, cyclo(-L-Asu(OMe)-D-Tyr(Me)-L-Ile-D-Pro-)] (cyclo([Asu](OMe)[dY](Me)I[dP])) | 0.12 | 0.07 | > 500 | 3.95 |  |
| CC[C@H](C)[C@@H]1NC(=O)[C@@H](Cc2ccc(OC)cc2)NC(=O)[C@H](CCCCCN(O)C=O)NC(=O)[C@H]2CCCCN2C1=O [N(OH)COH Cyclo(X-y(Me)-I-pip), n = 5, cyclo(-L-Hly(For, OH)-D-Tyr(Me)-L-Ile-D-Pip-)] (cyclo(I[dPip][hLys(Nζ-OH,Nζ-For)][dY](Me))) |  |  |  | 3.73 | IC50 (human HDAC1): 0.067 µM; IC50 (human HDAC4): 0.13 µM; IC50 (mouse HDAC6): 0.18 µM |
| CC[C@H](C)[C@@H]1NC(=O)[C@@H](Cc2ccc(OC)cc2)NC(=O)[C@H](CCCCCN(C=O)OCc2ccccc2)NC(=O)[C@H]2CCCCN2C1=O [cyclo(-L-Hly(For, OBzl)-D-Tyr(Me)-L-Ile-D-Pip-)] |  |  |  |  | ring closure, isolated yield [2]: 28% |
| CC[C@H](C)[C@@H]1NC(=O)[C@@H](Cc2ccc(OC)cc2)NC(=O)[C@H](CCCCCC(=O)Oc2ccccc2N)NC(=O)[C@H]2CCCN2C1=O [OAPNH, cyclo(L-Asu(OAPNH)-D-Tyr(Me)-L-Ile-D-Pro)] (cyclo([Asu](X2)[dY](Me)I[dP])) |  |  |  |  | IC50 (human HDAC1; [3]): 0.4 µM; IC50 (human HDAC4; [4]): 0.24 µM; IC50 (mouse HDAC6; [5]): 441 µM; EC50 [1, 6]: 12.9 µM |
| CC[C@H](C)[C@@H]1NC(=O)[C@@H](Cc2ccc(OC)cc2)NC(=O)[C@H](CCCCN(O)C=O)NC(=O)[C@@H]2CCCCN2C1=O [N(OH)COH Cyclo(X-y(Me)-I-Pip), n = 4] | 23.9 | 17.5 | 8.19 |  |  |
| CC[C@H](C)[C@@H]1NC(=O)[C@@H](Cc2ccc(OC)cc2)NC(=O)[C@H](CCCCCCN(O)C=O)NC(=O)[C@H]2CCCCN2C1=O [N(OH)COH Cyclo(X-y(Me)-I-pip), n = 6] | 6.36 | 7.02 | 12.2 |  |  |
| CC[C@H](C)[C@@H]1NC(=O)[C@@H](Cc2ccc(OC)cc2)NC(=O)[C@H](CCCCCCN(O)C=O)NC(=O)[C@@H]2CCCCN2C1=O [N(OH)COH Cyclo(X-y(Me)-I-Pip), n = 6] | 13.5 | 18.9 | 11.2 |  |  |
| CC[C@H](C)[C@@H]1NC(=O)[C@@H](Cc2ccc(OC)cc2)NC(=O)[C@H](CCCCCC(=O)O)NC(=O)[C@H]2CCCN2C1=O [COOH, cyclo(L-Asu-D-Tyr(Me)-L-Ile-D-Pro)] (cyclo([Asu][dY](Me)I[dP])) | 4.07 | 5.69 | > 500 | > 100 |  |
| CC[C@H](C)[C@@H]1NC(=O)[C@@H](Cc2ccc(OC)cc2)NC(=O)[C@H](CCCCN(O)C=O)NC(=O)[C@H]2CCCCN2C1=O [N(OH)COH Cyclo(X-y(Me)-I-pip), n = 4] | 33.9 | 25.2 | 14.3 |  |  |
| CC[C@H](C)[C@@H]1NC(=O)[C@@H](Cc2ccc(OC)cc2)NC(=O)[C@H](CCCCS(=O)(=O)CC(=O)C(F)(F)F)NC(=O)[C@H]2CCCN2C1=O [Stfk] |  |  |  | > 100 |  |
| Cyclo(-L-Asu(OBzl)-D-Tyr(Me)-L-Ile-D-Pro-) [COOBzI] |  |  |  | > 100 |  |
